Source: patent publication US20230085307A1, “PYRIDAZINONE COMPOUND AND HERBICIDE” (NISSAN CHEMICAL CORPORATION, priority 2019, published 2023)

Key:
windgrass [1] = assay: Test Example 5: herbicidal effect by foliage application, plastic box (Table 20, symbol L); type: in vivo, windgrass (Apera spica-venti); details: 320 g/ha; for herbicidal effect on windgrass (L): three weeks after application
How it was run: (§1)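 Plants sown in sterilized diluvial soil and grown 14 days in a greenhouse at 25° C to 30° C, then sprayed on the foliage with the compound's emulsion diluted in water to a predetermined herbicide amount. Injury to weeds and crops scored three weeks after application on a visual rating scale.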

southern crabgrass [2] = assay: Test Example 5: herbicidal effect by foliage application, plastic box (Table 20, symbol F); type: in vivo, southern crabgrass (Digitaria ciliaris); details: 320 g/ha; for herbicidal effect on southern crabgrass (F): three weeks after application
How it was run: as §1

green foxtail = assay: Test Example 5: herbicidal effect by foliage application, plastic box (Table 20, symbol G); type: in vivo, green foxtail (Setaria viridis); details: 320 g/ha; for herbicidal effect on green foxtail (G): three weeks after application
How it was run: as §1

rice flat sedge = assay: Test Example 3: herbicidal effect by foliage application, Wagner pot (Table 18, symbol E); type: in vivo, rice flat sedge (Cyperus iria); details: for Herbicidal effect on E (rice flat sedge), foliage application: amount of applied herbicide 320 g/ha
How it was run: (§2)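 Plants were sown in alluvial soil held under 0.1–0.5 cm standing water and grown 14 days in a greenhouse at 25–30 °C. An emulsifiable formulation, water-diluted to the set dose, was then sprayed onto the foliage, and effects were scored three weeks later using previously defined criteria.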

barnyard grass = assay: Test Example 5: herbicidal effect by foliage application, plastic box (Table 20, symbol H); type: in vivo, barnyard grass (Echinochloa crus-galli); details: 320 g/ha; for herbicidal effect on barnyard grass (H): three weeks after application
How it was run: as §1

Chinese sprangletop = assay: Test Example 3: herbicidal effect by foliage application, Wagner pot (Table 18, symbol D); type: in vivo, chinese sprangletop (Leptochloa chinensis); details: for Herbicidal effect on D (Chinese sprangletop), foliage application: amount of applied herbicide 320 g/ha
How it was run: as §2

lambsquarters [3] = assay: Test Example 4: herbicidal effect by soil treatment (Table 19, symbol O); type: in vivo, lambsquarters (Chenopodium album); details: amount of applied herbicide 320 g/ha
How it was run: (§3)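 Three weeks of greenhouse growth at 25° C. to 30° C. followed a uniform surface spray of water-diluted emulsion at a predetermined herbicide amount. Seeds had been sown beforehand under about 1.5 cm of sterilized diluvial soil. Grading followed criteria set out in an earlier test.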

lambsquarters [4] = assay: Test Example 5: herbicidal effect by foliage application, plastic box (Table 20, symbol O); type: in vivo, lambsquarters (Chenopodium album); details: 320 g/ha; for herbicidal effect on lambsquarters (O): three weeks after application
How it was run: as §1

windgrass [5] = assay: Test Example 4: herbicidal effect by soil treatment (Table 19, symbol L); type: in vivo, windgrass (Apera spica-venti); details: amount of applied herbicide 320 g/ha
How it was run: as §3

persian speedwell = assay: Test Example 5: herbicidal effect by foliage application, plastic box (Table 20, symbol R); type: in vivo, Persian speedwell (Veronica persica); details: 320 g/ha; for herbicidal effect on persian speedwell (R): three weeks after application
How it was run: as §1

oval-leafed pondweed [6] = assay: Test Example 2: herbicidal activity, application during weed generation under submerged conditions (Table 17, symbol C); type: in vivo, oval-leafed pondweed (Monochoria vaginalis); details: for herbicidal effect rating, C: oval-leafed pondweed: AAH 320 g/ha, application during weed generation, submerged conditions
How it was run: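 In this pot test, flooded alluvial soil (water depth 4 cm) holds all three species sown as a mixture. Once seedlings have one to two leaves, the compound's emulsion, thinned with water to the intended dose, is poured on the water; grading follows after three weeks on the earlier criteria.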

velvetleaf = assay: Test Example 4: herbicidal effect by soil treatment (Table 19, symbol M); type: in vivo, velvetleaf (Abutilon theophrasti); details: amount of applied herbicide 320 g/ha
How it was run: as §3

southern crabgrass [7] = assay: Test Example 4: herbicidal effect by soil treatment (Table 19, symbol F); type: in vivo, southern crabgrass (Digitaria ciliaris); details: amount of applied herbicide 320 g/ha
How it was run: as §3

oval-leafed pondweed [8] = assay: Test Example 1: herbicidal activity, application before weed generation under submerged conditions (Table 16, symbol C); type: in vivo, oval-leafed pondweed (Monochoria vaginalis); details: amount of applied herbicide 320 g/ha
How it was run: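 Emulsion formulation, water-diluted to set dose, was put onto the flooded surface (4 cm depth, alluvial soil) the same day weeds were sown and 2.5-leaf rice transplanted. After 3 weeks at 25-30 °C under glass, each species was rated 0 (≤5% kill) to 5 (≥90% kill).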

redroot pigweed = assay: Test Example 4: herbicidal effect by soil treatment (Table 19, symbol N); type: in vivo, redroot pigweed (Amaranthus retroflexus); details: amount of applied herbicide 320 g/ha
How it was run: as §3

chickweed = assay: Test Example 5: herbicidal effect by foliage application, plastic box (Table 20, symbol P); type: in vivo, common chickweed (Stellaria media); details: 320 g/ha
How it was run: as §1

[9] = foliage application after 14-day growth, evaluated three weeks after application
[10] = foliage application, evaluated 3 weeks after application

| SMILES | herbicidal effect on windgrass (L) (windgrass [1]; foliage application) | herbicidal effect on southern crabgrass (F) (southern crabgrass [2]; foliage application) | herbicidal effect on green foxtail (G) (green foxtail; foliage application) | Herbicidal effect on E (rice flat sedge), foliage application (rice flat sedge) | herbicidal effect on barnyard grass (H) (barnyard grass; foliage application) | Herbicidal effect on D (Chinese sprangletop), foliage application (Chinese sprangletop) | O: lambsquarters, herbicidal effect grade (lambsquarters [3]) | herbicidal effect on lambsquarters (O) (lambsquarters [4]; foliage application) | L: windgrass, herbicidal effect grade (windgrass [5]) | herbicidal effect on persian speedwell (R) (persian speedwell; foliage application) | herbicidal effect rating, C: oval-leafed pondweed (oval-leafed pondweed [6]) | M: velvetleaf, herbicidal effect grade (velvetleaf) | F: southern crabgrass, herbicidal effect grade (southern crabgrass [7]) | Herbicidal effect, C: oval-leafed pondweed (oval-leafed pondweed [8]) | N: redroot pigweed, herbicidal effect grade (redroot pigweed) | further results |
| --- | --- | --- | --- | --- | --- | --- | --- | --- | --- | --- | --- | --- | --- | --- | --- | --- |
| CCCC(=O)Oc1c(C)nn(C)c(=O)c1-c1c(-c2ccc3c(c2)OCCO3)oc2ccc(C)cc12 [9-013] | 0 (Herbicidal rate of 5% or less (almost no effect)) | 0 (Herbicidal rate of 5% or less (almost no effect)) | 0 (Herbicidal rate of 5% or less (almost no effect)) | 3 (Herbicidal rate of 40% or more and less than 70%) | 0 (Herbicidal rate of 5% or less (almost no effect)) | 0 (Herbicidal rate of 5% or less (almost no effect)) | 0 (Herbicidal rate of 5% or less (almost no effect)) | 3 (Herbicidal rate of 40% or more and less than 70%) | 0 (Herbicidal rate of 5% or less (almost no effect)) | 5 (Herbicidal rate of 90% or more (almost completely withered)) | 5 (Herbicidal rate of 90% or more (almost completely withered)) | 2 (Herbicidal rate of 20% or more and less than 40%) | 4 (Herbicidal rate of 70% or more and less than 90%) | 4 (Herbicidal rate of 70% or more and less than 90%) | 3 (Herbicidal rate of 40% or more and less than 70%) | – |
| CCCOc1ccc(-c2oc3ccccc3c2-c2c(O)c(C)nn(C)c2=O)cc1 [8-003] | 0 (Herbicidal rate of 5% or less (almost no effect)) | 2 (Herbicidal rate of 20% or more and less than 40%) | 5 (Herbicidal rate of 90% or more (almost completely withered)) | 4 (Herbicidal rate of 70% or more and less than 90%) | 5 (Herbicidal rate of 90% or more (almost completely withered)) | 3 (Herbicidal rate of 40% or more and less than 70%) | 3 (Herbicidal rate of 40% or more and less than 70%) | 3 (Herbicidal rate of 40% or more and less than 70%) | 0 (Herbicidal rate of 5% or less (almost no effect)) | 5 (Herbicidal rate of 90% or more (almost completely withered)) | 3 (Herbicidal rate of 40% or more and less than 70%) | 1 (Herbicidal rate of 5% or more and less than 20%) | 3 (Herbicidal rate of 40% or more and less than 70%) | 5 (Herbicidal rate of 90% or more (almost completely withered)) | 5 (Herbicidal rate of 90% or more (almost completely withered)) | – |
| COc1ccccc1-c1sc2c(Br)c(OC)ccc2c1-c1c(O)c(C)nn(C)c1=O [7-002] | 5 (Herbicidal rate of 90% or more (almost completely withered)) | 0 (Herbicidal rate of 5% or less (almost no effect)) | 5 (Herbicidal rate of 90% or more (almost completely withered)) | 4 (Herbicidal rate of 70% or more and less than 90%) | 5 (Herbicidal rate of 90% or more (almost completely withered)) | 2 (Herbicidal rate of 20% or more and less than 40%) | 4 (Herbicidal rate of 70% or more and less than 90%) | 4 (Herbicidal rate of 70% or more and less than 90%) | 0 (Herbicidal rate of 5% or less (almost no effect)) | 5 (Herbicidal rate of 90% or more (almost completely withered)) | 2 (Herbicidal rate of 20% or more and less than 40%) | 1 (Herbicidal rate of 5% or more and less than 20%) | 1 (Herbicidal rate of 5% or more and less than 20%) | 3 (Herbicidal rate of 40% or more and less than 70%) | 5 (Herbicidal rate of 90% or more (almost completely withered)) | – |
| CCCC(=O)Oc1c(C)nn(C)c(=O)c1-c1c(-c2ccc(C#N)cc2)sc2c(F)cccc12 [4-053] | – | – | – | – | – | – | – | – | – | – | – | – | – | 2 (Herbicidal rate of 20% or more and less than 40%) | – | herbicidal effect on L: windgrass (evaluation grade 0-5) (windgrass [1]; [9]): 4 (Herbicidal rate of 70% or more and less than 90%); herbicidal effect on F: southern crabgrass (evaluation grade 0-5) (southern crabgrass [2]; [9]): 0 (Herbicidal rate of 5% or less (almost no effect)); herbicidal effect on G: green foxtail (evaluation grade 0-5) (green foxtail; [9]): 0 (Herbicidal rate of 5% or less (almost no effect)); herbicidal effect on rice flat sedge (E) (rice flat sedge; 320 g/ha): 4 (Herbicidal rate of 70% or more and less than 90%); herbicidal effect on H: barnyard grass (evaluation grade 0-5) (barnyard grass; [9]): 2 (Herbicidal rate of 20% or more and less than 40%); herbicidal effect on Chinese sprangletop (D) (Chinese sprangletop; 320 g/ha): 3 (Herbicidal rate of 40% or more and less than 70%); Herbicidal effect by soil treatment, O: lambsquarters (lambsquarters [3]): 3 (Herbicidal rate of 40% or more and less than 70%); herbicidal effect on O: lambsquarters (evaluation grade 0-5) (lambsquarters [4]; [9]): 4 (Herbicidal rate of 70% or more and less than 90%); herbicidal effect on P: chickweed (evaluation grade 0-5) (chickweed; [9]): 5 (Herbicidal rate of 90% or more (almost completely withered)); Herbicidal effect by soil treatment, L: windgrass (windgrass [5]): 0 (Herbicidal rate of 5% or less (almost no effect)); herbicidal effect on R: persian speedwell (evaluation grade 0-5) (persian speedwell; [9]): 5 (Herbicidal rate of 90% or more (almost completely withered)); Herbicidal effect by soil treatment, M: velvetleaf (velvetleaf): 2 (Herbicidal rate of 20% or more and less than 40%); Herbicidal effect by soil treatment, F: southern crabgrass (southern crabgrass [7]): 0 (Herbicidal rate of 5% or less (almost no effect)); Herbicidal effect by soil treatment, N: redroot pigweed (redroot pigweed): 5 (Herbicidal rate of 90% or more (almost completely withered)) |
| COCCOc1ccc(-c2oc3ccc(C)cc3c2-c2c(O)c(C)nn(C)c2=O)cc1 [9-063] | – | – | – | 4 (Herbicidal rate of 70% or more and less than 90%) | – | 3 (Herbicidal rate of 40% or more and less than 70%) | 5 (Herbicidal rate of 90% or more (almost completely withered)) | – | – | – | – | 5 (Herbicidal rate of 90% or more (almost completely withered)) | 5 (Herbicidal rate of 90% or more (almost completely withered)) | 5 (Herbicidal rate of 90% or more (almost completely withered)) | 5 (Herbicidal rate of 90% or more (almost completely withered)) | L (windgrass) herbicidal effect grade (windgrass [1]; [10]): 4 (Herbicidal rate of 70% or more and less than 90%); F (southern crabgrass) herbicidal effect grade (southern crabgrass [2]; [10]): 5 (Herbicidal rate of 90% or more (almost completely withered)); G (green foxtail) herbicidal effect grade (green foxtail; [10]): 5 (Herbicidal rate of 90% or more (almost completely withered)); H (barnyard grass) herbicidal effect grade (barnyard grass; [10]): 5 (Herbicidal rate of 90% or more (almost completely withered)); O (lambsquarters) herbicidal effect grade (lambsquarters [4]; [10]): 5 (Herbicidal rate of 90% or more (almost completely withered)); P (chickweed) herbicidal effect grade (chickweed; [10]): 5 (Herbicidal rate of 90% or more (almost completely withered)); R (persian speedwell) herbicidal effect grade (persian speedwell; [10]): 5 (Herbicidal rate of 90% or more (almost completely withered)); herbicidal effect grade, C: oval-leafed pondweed (oval-leafed pondweed [6]; application during weed generation under submerged conditions, amount of applied herbicide 320 g/ha): 4 (Herbicidal rate of 70% or more and less than 90%) |
